Literature values, collected in patent US7829688B2, “Peptides of CaV2.2 that inhibit pain” (The Board of Regents of the University of Texas System, priority 2004, dated 2010).

Target: T1, N-type Ca2+ channels (Rattus norvegicus, UniProt Q02294, C1579L/DEL1236-1239/DEL415-415/E177G/INS1558ET)
T1 construct: host or cells: rat, in vivo (Malmberg and Yaksh, 1994, 1995)
Details: in vivo; cited from earlier work

T1 sequence (Q02294 whole entry, looked up, stated change not applied): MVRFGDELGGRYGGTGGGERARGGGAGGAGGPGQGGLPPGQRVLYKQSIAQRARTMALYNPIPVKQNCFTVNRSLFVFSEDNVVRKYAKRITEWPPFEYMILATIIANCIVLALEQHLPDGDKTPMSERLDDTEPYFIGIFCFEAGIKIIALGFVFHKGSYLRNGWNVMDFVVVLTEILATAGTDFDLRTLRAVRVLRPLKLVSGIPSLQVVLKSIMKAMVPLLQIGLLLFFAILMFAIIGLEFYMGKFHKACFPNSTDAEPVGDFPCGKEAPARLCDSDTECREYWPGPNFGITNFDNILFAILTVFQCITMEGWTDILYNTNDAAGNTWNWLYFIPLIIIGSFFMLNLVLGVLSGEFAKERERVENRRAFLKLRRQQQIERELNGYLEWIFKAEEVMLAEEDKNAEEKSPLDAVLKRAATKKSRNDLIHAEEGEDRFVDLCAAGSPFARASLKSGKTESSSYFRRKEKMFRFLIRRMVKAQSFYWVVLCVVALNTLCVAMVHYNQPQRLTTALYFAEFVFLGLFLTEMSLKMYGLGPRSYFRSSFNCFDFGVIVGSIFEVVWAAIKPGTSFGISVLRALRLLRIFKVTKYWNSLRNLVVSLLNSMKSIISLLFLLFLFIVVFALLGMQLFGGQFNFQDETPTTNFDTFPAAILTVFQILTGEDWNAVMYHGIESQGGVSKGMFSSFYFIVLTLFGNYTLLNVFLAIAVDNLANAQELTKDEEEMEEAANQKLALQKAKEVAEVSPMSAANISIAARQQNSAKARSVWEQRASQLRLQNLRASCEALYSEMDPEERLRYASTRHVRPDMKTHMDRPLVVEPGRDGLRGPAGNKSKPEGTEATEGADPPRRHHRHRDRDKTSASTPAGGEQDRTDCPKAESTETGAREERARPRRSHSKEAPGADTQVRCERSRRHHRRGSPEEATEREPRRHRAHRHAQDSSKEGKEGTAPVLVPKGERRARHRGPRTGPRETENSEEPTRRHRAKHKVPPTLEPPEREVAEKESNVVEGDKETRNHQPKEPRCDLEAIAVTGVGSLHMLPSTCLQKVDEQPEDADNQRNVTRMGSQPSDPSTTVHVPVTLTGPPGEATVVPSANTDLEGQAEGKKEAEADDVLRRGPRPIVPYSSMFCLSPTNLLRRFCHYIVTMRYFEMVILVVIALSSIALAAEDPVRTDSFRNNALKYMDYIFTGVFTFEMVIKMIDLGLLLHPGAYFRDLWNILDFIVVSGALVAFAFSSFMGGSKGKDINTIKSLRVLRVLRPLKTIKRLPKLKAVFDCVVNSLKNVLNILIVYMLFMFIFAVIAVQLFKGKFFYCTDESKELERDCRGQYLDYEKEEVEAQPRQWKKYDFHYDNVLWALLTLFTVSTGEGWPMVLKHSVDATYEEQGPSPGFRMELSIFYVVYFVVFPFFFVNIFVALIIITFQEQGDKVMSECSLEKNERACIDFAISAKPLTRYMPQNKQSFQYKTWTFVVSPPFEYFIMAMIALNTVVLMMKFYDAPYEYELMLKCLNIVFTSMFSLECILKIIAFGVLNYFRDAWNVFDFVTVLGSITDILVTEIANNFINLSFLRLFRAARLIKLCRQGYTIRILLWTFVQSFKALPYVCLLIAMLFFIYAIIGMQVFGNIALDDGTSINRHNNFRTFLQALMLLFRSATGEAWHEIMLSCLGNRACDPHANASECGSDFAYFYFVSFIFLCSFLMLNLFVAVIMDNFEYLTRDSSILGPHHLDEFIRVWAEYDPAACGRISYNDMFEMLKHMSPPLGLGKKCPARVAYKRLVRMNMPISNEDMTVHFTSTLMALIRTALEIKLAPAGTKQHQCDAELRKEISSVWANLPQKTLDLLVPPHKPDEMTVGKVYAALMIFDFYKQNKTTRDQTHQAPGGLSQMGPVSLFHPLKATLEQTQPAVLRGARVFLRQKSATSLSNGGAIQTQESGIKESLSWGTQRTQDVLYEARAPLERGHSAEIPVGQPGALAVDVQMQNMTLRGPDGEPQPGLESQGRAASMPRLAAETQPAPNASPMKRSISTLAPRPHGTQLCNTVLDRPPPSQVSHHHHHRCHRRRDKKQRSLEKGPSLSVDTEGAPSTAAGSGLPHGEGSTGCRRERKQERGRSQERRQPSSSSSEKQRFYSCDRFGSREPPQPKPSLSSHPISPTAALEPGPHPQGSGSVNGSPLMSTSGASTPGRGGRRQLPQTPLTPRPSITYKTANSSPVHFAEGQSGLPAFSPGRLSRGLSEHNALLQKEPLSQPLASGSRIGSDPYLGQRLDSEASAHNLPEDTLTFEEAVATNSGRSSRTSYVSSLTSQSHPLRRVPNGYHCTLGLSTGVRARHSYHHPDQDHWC

CSCC[C@@H]1NC(=O)[C@H](CC(C)C)NC(=O)[C@H](CCCNC(=N)N)NC(=O)[C@H](CO)NC(=O)[C@@H]2CSSC[C@@H]3NC(=O)[C@H](CO)NC(=O)CNC(=O)[C@H]([C@@H](C)O)NC(=O)[C@H](CSSC[C@H](N)C(=O)N[C@@H](CCCCN)C(=O)NCC(=O)N[C@@H](CCCCN)C(=O)NCC(=O)N[C@@H](C)C(=O)N[C@@H](CCCCN)C(=O)N2)NC(=O)[C@H](CSSC[C@@H](C(N)=O)NC(=O)[C@H](CCCCN)NC(=O)CNC(=O)[C@H](CO)NC(=O)[C@H](CCCNC(=N)N)NC3=O)NC(=O)[C@H](CC(=O)O)NC(=O)[C@H](Cc2ccc(O)cc2)NC1=O [SNX-111]
phase II formalin response: inhibited
